Tests used:
[1] = tested on: Akt substrates GSK3α/β, TSC2, and FoxO1/O3a in L6 myotubes; assay: Akt substrate phosphorylation in L6 myotubes (Western blot); assay type: cell-based; conditions: for phosphorylation of Akt and its substrates: insulin
[2] = tested on: Akt phosphorylation in SIN1−/− MEFs; assay: Akt phosphorylation in primary SIN1−/− MEFs (Western blot); assay type: cell-based, mouse; conditions: insulin, PIK-90 625 nM, BX-795 10 μM
[3] = tested on: S6K, S6 and 4EBP1 phosphorylation in L6 myotubes; assay: mTORC1 substrate phosphorylation in L6 myotubes (Western blot); conditions: Figure S3
PDK1 = biological target: T1, PDK1 (Homo sapiens, UniProt O15530); assay: biochemical
T1 sequence (O15530 1-556): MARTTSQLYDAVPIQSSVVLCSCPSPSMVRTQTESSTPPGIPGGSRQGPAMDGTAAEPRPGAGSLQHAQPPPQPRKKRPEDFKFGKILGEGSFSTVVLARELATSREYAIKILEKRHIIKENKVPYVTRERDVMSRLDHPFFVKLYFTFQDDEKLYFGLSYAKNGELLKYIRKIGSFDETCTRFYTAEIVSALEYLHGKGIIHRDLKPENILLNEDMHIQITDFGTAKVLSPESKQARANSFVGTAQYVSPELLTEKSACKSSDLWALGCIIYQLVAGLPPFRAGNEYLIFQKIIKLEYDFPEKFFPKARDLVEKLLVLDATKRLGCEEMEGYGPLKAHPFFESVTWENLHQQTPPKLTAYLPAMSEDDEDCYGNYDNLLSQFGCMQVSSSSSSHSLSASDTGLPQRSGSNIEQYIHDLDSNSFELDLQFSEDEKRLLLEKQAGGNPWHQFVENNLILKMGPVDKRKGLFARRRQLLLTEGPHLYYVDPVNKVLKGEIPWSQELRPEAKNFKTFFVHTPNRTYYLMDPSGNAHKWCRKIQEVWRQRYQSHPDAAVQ

PKCβII = PKCβII (Homo sapiens, UniProt P05771); assay: biochemical
Protocol: (§1) Phosphorylation of histone H1 (4 μM) by PKC was assayed in a buffer containing 200 ng/ml recombinant kinase, 25 mM HEPES pH 7.5, 10 mM MgCl2, 5 mM ß-glycerol phosphate, 0.05 mg/ml phosphatidylserine, 0.03% Triton X-100, 0.5 mg/ml BSA, 2.5 mM DTT, 100 μM CaCl2, 1 μM PMA, 10 μM ATP, and 15 μCi/ml of γ-^32P-ATP. Inhibitors were tested in a four-fold dilution series from 10 μM to 600 pM, and four measurements were made at each concentration. The kinase reaction was terminated by spotting onto nitrocellulose, which was washed 5 times with 1 M NaCl/1% phosphoric acid. The radioactivity remaining on the nitrocellulose sheet was quantified by phosphorimaging, and IC50 values were determined by fitting the data to a sigmoidal dose-response curve using the Prism software package.

PKCβI = PKCβI (Homo sapiens, UniProt P05771); assay: biochemical
Protocol: as §1

PKC-beta = PKC-beta (Homo sapiens, UniProt P05771); conditions: in vitro, purified protein
Protocol: as §1

[4] = tested on: new protein synthesis in primary MEFs; assay: 35S labeling of new protein synthesis; assay type: cell-based, mouse; conditions: overnight
Protocol: Primary MEFs grown to 70% confluence in six-well plates were incubated overnight in either 10% Serum (Steady State), kinase inhibitors in 10% serum, or 0.1% serum (starved). Cells were then washed once with DMEM lacking cysteine and methionine (DMEM-noS), and the medium was replaced with DMEM-noS including dialyzed serum and kinase inhibitors as indicated. After incubation for 1 h, 50 μCi of Expre^35S^35S (NEN) was added to each well and the cells were labeled for 4 h. Cells were washed once with ice-cold PBS, and lysed as described above for Western blotting. Following separation by SDS-PAGE, and transfer to nitrocellulose, ^35S-labeled proteins were visualized by autoradiography with film. For quantitation, the membrane was exposed to a phosphorimager screen and the resulting image was quantified in ImageJ. Differences in ^35S incorporation were analyzed for statistical significance by one-way ANOVA with Tukey's post test using the Prism software package.

[5] = tested on: pT308 of S473A Akt in HEK293 cells; assay type: cell-based; conditions: HEK293, insulin, 2.5 μM PP242
[6] = tested on: Akt, S6 and 4EBP1 phosphorylation in fat, skeletal muscle, and liver; assay: In vivo drug treatment and Western blotting of insulin signaling; design: species or system C57BL/6 mice; conditions: mice; for S6 phosphorylation, all tissues examined / phosphorylation of 4EBP1 on T36/45 and S65, all tissues examined: rapamycin 5 mg/kg or PP242 20 mg/kg IP
Protocol: Drugs were prepared in 100 μl of vehicle containing 20% DMSO, 40% PEG-400, and 40% saline. Six-wk-old male C57BL/6 mice were fasted overnight prior to drug treatment. […] 15 min after the insulin injection, the mice were killed by CO2 asphyxiation followed by cervical dislocation. Tissues were harvested and frozen on liquid nitrogen in 200 μl of cap lysis buffer. The frozen tissue was thawed on ice, manually disrupted with a mortar and pestle, and then further processed with a micro tissue-homogenizer (Fisher PowerGen 125 with Omni-Tip probe). Protein concentration of the cleared lysate was measured by Bradford assay and 5–10 μg of protein was analyzed by Western blot as described above.

[7] = tested on: cap-dependent and IRES-dependent translation in primary MEFs; assay: Bicistronic reporter assay; assay type: cell-based, mouse; conditions: overnight, 10% serum
Protocol: Primary MEFs were transfected with a bicistronic reporter [54] containing a viral IRES using Lipofectamine 2000 according to the manufacturers protocol. At 2 d post transfection, cells were treated overnight with compounds as indicated or starved of serum. The next day, Renilla and Firefly luciferase activity were measured using the Dual-Luciferase kit (Promega). Differences in the ratio of Renilla to Firefly luciferase signals were analyzed for statistical significance by one-way ANOVA with Tukey's post test using the Prism software package.

[8] = tested on: 4EBP1 bound to eIF4E in L6 myotube lysates; assay: Cap pull-down assay (m7GTP beads); assay type: cell-based
Protocol: L6 myotubes from one well of a six-well plate were lysed in 300 μl of cap lysis buffer as described above. 50 μl of detergent-free cap lysis buffer and 20 μl of pre-washed cap beads were added to 150 μl of cleared lysate and incubated at 4 °C overnight with tumbling. The beads were washed twice with 400 μl of cap wash buffer (cap lysis buffer with 0.5% NP-40 instead of 1% NP-40) and twice with 500 μl of PBS. The beads were boiled in SDS-PAGE sample buffer and the retained proteins analyzed by Western blot. All antibodies were from Cell Signaling Technologies except for the anti-eIF4E antibody, which was from BD Biosciences.

[9] = tested on: Akt phosphorylation in wild-type MEFs; assay: Akt phosphorylation in primary wild-type MEFs (Western blot); assay type: cell-based, mouse; conditions: long-term rapamycin (100 nM, 24 h)
primary wild-type MEFs = assay: Cell proliferation assay (resazurin), wild-type MEFs; assay type: cell-based, mouse; conditions: cultured 3 d, resazurin fluorescence
Protocol: (§2) Wild-type and SIN1^−/− MEFs were plated in 96-well plates at approximately 30% confluence and left overnight to adhere.

SIN1−/− MEFs = assay: Cell proliferation assay (resazurin), SIN1−/− MEFs; conditions: compared with PP242
Protocol: as §2

PKCβII, sequence (P05771 1-673 isoform P05771-2): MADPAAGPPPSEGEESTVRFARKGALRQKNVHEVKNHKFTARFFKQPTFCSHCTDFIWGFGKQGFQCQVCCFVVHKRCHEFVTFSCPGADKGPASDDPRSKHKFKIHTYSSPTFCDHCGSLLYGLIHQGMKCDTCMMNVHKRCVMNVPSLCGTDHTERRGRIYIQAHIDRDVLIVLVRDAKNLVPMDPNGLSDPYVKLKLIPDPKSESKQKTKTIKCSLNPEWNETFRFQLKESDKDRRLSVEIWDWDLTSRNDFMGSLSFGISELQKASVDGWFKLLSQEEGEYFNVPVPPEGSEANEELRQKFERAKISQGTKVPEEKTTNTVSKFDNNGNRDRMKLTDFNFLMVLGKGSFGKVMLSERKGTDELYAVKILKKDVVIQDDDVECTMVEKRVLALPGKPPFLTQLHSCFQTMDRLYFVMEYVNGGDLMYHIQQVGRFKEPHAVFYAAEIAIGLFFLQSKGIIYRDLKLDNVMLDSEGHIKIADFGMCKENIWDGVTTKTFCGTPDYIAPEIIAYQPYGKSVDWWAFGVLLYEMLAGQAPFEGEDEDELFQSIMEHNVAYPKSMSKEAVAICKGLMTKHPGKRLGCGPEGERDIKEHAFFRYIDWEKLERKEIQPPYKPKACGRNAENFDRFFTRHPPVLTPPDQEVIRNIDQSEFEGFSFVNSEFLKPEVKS
PKCβI, sequence (P05771 whole entry): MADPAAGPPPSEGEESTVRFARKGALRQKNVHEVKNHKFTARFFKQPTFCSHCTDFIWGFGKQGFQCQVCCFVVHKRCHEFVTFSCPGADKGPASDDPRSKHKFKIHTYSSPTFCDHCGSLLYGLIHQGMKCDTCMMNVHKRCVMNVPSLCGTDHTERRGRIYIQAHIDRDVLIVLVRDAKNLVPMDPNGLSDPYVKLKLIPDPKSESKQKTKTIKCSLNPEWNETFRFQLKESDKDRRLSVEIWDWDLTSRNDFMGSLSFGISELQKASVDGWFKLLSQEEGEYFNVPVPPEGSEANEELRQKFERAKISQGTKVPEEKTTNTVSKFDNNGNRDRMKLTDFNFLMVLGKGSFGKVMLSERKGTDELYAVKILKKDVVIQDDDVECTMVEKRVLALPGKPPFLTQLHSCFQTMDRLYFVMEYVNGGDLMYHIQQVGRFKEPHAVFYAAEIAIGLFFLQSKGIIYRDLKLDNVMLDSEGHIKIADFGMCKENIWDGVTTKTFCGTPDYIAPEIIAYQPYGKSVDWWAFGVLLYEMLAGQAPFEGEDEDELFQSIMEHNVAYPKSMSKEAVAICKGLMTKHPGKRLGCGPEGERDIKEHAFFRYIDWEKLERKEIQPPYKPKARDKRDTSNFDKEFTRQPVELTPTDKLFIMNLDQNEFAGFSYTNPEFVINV
PKC-beta, sequence (P05771 2-621 limits assumed): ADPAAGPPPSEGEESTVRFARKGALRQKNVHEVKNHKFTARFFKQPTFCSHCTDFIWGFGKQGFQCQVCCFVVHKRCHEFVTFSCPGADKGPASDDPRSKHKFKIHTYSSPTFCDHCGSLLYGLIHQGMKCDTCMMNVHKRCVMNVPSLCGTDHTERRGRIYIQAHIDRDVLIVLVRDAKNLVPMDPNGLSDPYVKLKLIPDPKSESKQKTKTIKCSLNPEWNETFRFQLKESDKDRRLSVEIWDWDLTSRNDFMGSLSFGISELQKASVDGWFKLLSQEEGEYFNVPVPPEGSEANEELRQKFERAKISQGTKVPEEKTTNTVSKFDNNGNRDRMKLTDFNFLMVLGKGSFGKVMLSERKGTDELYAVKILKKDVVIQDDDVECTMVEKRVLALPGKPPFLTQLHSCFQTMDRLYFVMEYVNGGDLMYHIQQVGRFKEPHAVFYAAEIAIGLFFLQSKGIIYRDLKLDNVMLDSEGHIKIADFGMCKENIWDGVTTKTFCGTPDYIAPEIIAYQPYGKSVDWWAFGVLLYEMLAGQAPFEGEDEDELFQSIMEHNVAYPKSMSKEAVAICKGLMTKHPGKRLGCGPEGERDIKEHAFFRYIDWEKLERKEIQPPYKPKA

O=c1[nH]c2ccccc2n1C1CCN(Cc2ccc(-c3nc4cc5nc[nH]c5cc4nc3-c3ccccc3)cc2)CC1 [Akti-1/2]
FoxO1/O3a phosphorylation at T24/T32 [1]: inhibits | phosphorylation of Akt and its substrates [1]: completely inhibited

O=C(NCCCNc1nc(Nc2cccc(NC(=O)N3CCCC3)c2)ncc1I)c1cccs1 [BX-795]
phosphorylation of Akt T308 [2]: blocked

COc1ccc2c(c1OC)N=C(NC(=O)c1cccnc1)N1CCN=C21 [PIK-90]
phosphorylation of Akt T308 [2]: blocked | phosphorylation of Akt and its substrates [1]: completely inhibited | phosphorylation of 4EBP1 at T36/45 [3]: did not reduce

CC(C)n1nc(-c2cccc(C(=O)NC3=NCCS3)c2)c2c(N)ncnc21 [PP30]
IC50 (PDK1): > 10 µM | IC50 (PKCβII): > 10 µM | IC50 (PKCβI): > 10 µM | activity against PKC-beta (PKC-beta): no activity

CC(C)n1nc(-c2cc3cc(O)ccc3[nH]2)c2c(N)ncnc21 [PP242]
phosphorylation of Akt T308 [2]: no effect | reduction of total protein synthesis [4]: about 30% | T308-P on S473A Akt [5]: not inhibited | phosphorylation of Akt at S473 and T308 in fat and liver ([6]; PP242 20 mg/kg IP, insulin): completely inhibit | phosphorylation of Akt in skeletal muscle ([6]; PP242 20 mg/kg IP, insulin): only partially able to inhibit | S6 phosphorylation, all tissues examined [6]: fully inhibited | phosphorylation of 4EBP1 on T36/45 and S65, all tissues examined [6]: effective at blocking

CO[C@H]1C[C@@H]2CC[C@@H](C)[C@@](O)(O2)C(=O)C(=O)N2CCCC[C@H]2C(=O)O[C@H]([C@H](C)C[C@@H]2CC[C@@H](O)[C@H](OC)C2)CC(=O)[C@H](C)/C=C(\C)[C@@H](O)[C@@H](OC)C(=O)[C@H](C)C[C@H](C)/C=C/C=C/C=C/1C [rapamycin]
cap-dependent translation (renilla/firefly ratio) [7]: did not have a statistically significant effect | insulin-stimulated release of 4EBP1 from eIF4E (retention on m7GTP beads) [8]: partial inhibition | reduction of total protein synthesis [4]: does not have a significant effect | phosphorylation of Akt at S473 and T308, all tissues examined ([6]; acute rapamycin 5 mg/kg IP, insulin): activated | S6 phosphorylation, all tissues examined [6]: fully inhibited | phosphorylation of 4EBP1 on T36/45 and S65, all tissues examined [6]: did not block 4EBP1 phosphorylation as completely as PP242 | Akt S473-P [9]: inhibited | Akt T308-P [9]: reduced | proliferation of primary MEFs (primary wild-type MEFs): inhibited growth to the same extent | blocking cell proliferation of SIN1−/− MEFs (SIN1−/− MEFs): less effective at blocking cell proliferation than PP242

Reference: PMC2637922, “Active-Site Inhibitors of mTOR Target Rapamycin-Resistant Outputs of mTORC1 and mTORC2” (PLoS Biology, 2009)
